Assays:
Type in all cases: biochemical
Btk = target: T1, Btk (Homo sapiens, UniProt Q06187); assay: Z'-Lyte FRET kinase assay (Invitrogen), Btk; details: read-out: IC50, activity toward kinase Btk
T1 construct: purchased Invitrogen (assay run by Invitrogen)
Description: For example, direct radiometric, indirect FRET or AlphaScreen assays may be used to assess the level of phosphorylation of a substrate in the presence of test compounds in order to determine the inhibitory affect of the compound on the kinase. […] For these assays, compounds of the invention were screened by Invitrogen using Z′-Lyte™ kinase assay.
Briefly, the Invitrogen kinase assay involves use of a specific peptide substrate optimized for each kinase, containing a fluorophore at each end that make up the FRET pair. The peptide sensitivity to proteolytic cleavage depends on phosphorylation of the peptide. Non-phosphorylated peptide is cleaved by a protease while peptide phosphorylated by the kinase is not cleaved. Cleavage of the peptide disrupts the FRET between the donor (coumarin) and acceptor (fluorescein) fluorophores, resulting in an increase in the ratio of donor emission to acceptor emission. The emission ratio of coumarin to fluorescein is used to assess the reaction progress. […] Thus, the assay involves a kinase reaction in the presence of varying concentrations of a given compound, a development reaction with site specific protease, and detection of the fluorescent emission ratio of coumarin and fluorscein. […] Reaction conditions for each kinase are determined to provide optimal reaction times, incubation temperature, kinase and ATP concentrations. Test samples are made up in 1× kinase buffer (50 mM HEPES pH 7.5, 50 mM MgCl2, 5 mM EGTA, 0.05% BRIJ-35) and compound at desired concentration prepared in DMSO such that the final DMSO is 1%. […] All kinase except for MAP2K1 were at 10 μM ATP in the kinase reaction, while MAP2K1 was at 100 μM. Samples are mixed and the kinase reaction is incubated 1 hour at room temperature, after which 5 μl of development solution is added and mixed. After incubation for another 1 hour at room temperature, 5 μl of stop reagent is added to each sample and mixed. The fluorescence signals are measured to determine the emission ratio.

Erk2 = target: T2, Erk2 (Homo sapiens, UniProt P28482); assay: AlphaScreen kinase assay, Erk2; details: read-out: IC50, activity toward kinase Erk2
T2 construct: P4227.pET15S ERK2/MEK1DD; His6 with thrombin site (N); made in house
Description: AlphaScreen assay was used to screen additional kinases. The assay is similarly dependent on the phosphorylation of a peptide substrate. In this assay, an antibody that recognizes phosphorylated substrate is bound to an acceptor bead. The peptide substrate is attached to biotin, which binds to a donor head that contains streptavidin. Thus phosphorylated substrate is bound by antibody and streptavidin, bringing the donor and acceptor heads into close proximity when kinase is not inhibited. The donor produces singlet oxygen which results in emission from the acceptor when they are in close proximity. Conversely, when kinase is inhibited, the donor and acceptor beads are not associated and the emission from the acceptor is reduced.
AlphaScreen assays were done using compounds dissolved in DMSO to a concentration of 20 mM. The compounds were diluted accordingly to the desired final concentrations in each sample well, using 1:3 serial dilution for a total of 8 concentration points.

Jnk3 = target: T3, Jnk3 (Homo sapiens, UniProt P53779); assay: AlphaScreen kinase assay, Jnk3; details: read-out: IC50, activity toward kinase Jnk3
T3 construct: purchased Upstate Biotechnology

Kdr = target: T4, Kdr (Homo sapiens, UniProt P35968); assay: Z'-Lyte FRET kinase assay (Invitrogen), Kdr; details: read-out: IC50, activity toward kinase Kdr
T4 construct: purchased Invitrogen (assay run by Invitrogen)
T4 sequence (P35968 20-1356): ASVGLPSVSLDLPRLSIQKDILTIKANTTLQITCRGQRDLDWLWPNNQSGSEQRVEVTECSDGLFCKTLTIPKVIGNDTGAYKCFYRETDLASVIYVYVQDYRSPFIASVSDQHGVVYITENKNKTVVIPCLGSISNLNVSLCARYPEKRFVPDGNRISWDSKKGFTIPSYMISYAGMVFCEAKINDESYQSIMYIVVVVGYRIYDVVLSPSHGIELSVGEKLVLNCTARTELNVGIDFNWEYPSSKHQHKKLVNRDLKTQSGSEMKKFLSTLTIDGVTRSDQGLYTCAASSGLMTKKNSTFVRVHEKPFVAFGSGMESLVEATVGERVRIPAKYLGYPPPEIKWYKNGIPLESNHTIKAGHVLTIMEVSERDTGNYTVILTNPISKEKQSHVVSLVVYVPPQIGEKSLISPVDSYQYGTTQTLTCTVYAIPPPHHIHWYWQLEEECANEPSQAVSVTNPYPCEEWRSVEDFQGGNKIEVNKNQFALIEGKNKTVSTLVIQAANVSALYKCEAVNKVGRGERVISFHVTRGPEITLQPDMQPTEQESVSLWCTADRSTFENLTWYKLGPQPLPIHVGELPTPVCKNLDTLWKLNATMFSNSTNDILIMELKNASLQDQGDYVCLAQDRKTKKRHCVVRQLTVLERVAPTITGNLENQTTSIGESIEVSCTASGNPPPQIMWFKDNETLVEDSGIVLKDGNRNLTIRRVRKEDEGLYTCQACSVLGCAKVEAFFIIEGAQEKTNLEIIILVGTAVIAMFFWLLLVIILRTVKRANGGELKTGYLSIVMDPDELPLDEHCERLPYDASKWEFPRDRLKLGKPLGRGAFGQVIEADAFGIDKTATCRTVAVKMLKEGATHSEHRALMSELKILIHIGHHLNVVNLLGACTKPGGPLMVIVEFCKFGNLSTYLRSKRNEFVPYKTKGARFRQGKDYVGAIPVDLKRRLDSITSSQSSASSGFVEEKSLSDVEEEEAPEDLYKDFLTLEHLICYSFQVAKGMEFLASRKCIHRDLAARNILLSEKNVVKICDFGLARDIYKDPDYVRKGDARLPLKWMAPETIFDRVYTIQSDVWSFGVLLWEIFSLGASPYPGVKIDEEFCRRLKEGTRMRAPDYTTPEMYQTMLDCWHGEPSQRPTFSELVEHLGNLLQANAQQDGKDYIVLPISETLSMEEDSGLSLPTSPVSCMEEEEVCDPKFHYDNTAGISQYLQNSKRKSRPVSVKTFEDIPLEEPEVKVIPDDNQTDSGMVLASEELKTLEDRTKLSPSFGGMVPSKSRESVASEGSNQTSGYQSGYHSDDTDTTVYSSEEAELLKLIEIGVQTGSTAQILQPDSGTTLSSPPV

Kit = target: T5, Kit (Homo sapiens, UniProt P10721); assay: AlphaScreen kinase assay, Kit; details: read-out: IC50, activity toward kinase Kit
T5 construct: P1332.N6 BI PTP KIT M552-K948-X COD; His6 (N); made in house; host or cells: E. coli (PTP1B co-expressed)
T5 sequence (P10721 with tags, fused parts or gaps): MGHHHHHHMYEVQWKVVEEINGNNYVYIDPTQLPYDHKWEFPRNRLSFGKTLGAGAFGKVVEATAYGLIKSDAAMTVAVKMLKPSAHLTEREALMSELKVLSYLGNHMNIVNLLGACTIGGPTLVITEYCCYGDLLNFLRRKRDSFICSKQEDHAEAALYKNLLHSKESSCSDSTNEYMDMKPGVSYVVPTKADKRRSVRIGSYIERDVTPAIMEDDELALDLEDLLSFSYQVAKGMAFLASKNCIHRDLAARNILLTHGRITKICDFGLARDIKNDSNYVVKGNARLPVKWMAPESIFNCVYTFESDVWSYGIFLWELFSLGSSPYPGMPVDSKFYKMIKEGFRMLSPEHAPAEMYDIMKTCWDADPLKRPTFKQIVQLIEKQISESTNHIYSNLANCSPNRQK

MAP2K1 = target: T6, MAP2K1 (Homo sapiens, UniProt Q02750); assay: Z'-Lyte FRET kinase assay (Invitrogen), MAP2K1; details: read-out: IC50, activity toward kinase MAP2K1
T6 construct: purchased Invitrogen (assay run by Invitrogen)
T6 sequence (Q02750 whole entry): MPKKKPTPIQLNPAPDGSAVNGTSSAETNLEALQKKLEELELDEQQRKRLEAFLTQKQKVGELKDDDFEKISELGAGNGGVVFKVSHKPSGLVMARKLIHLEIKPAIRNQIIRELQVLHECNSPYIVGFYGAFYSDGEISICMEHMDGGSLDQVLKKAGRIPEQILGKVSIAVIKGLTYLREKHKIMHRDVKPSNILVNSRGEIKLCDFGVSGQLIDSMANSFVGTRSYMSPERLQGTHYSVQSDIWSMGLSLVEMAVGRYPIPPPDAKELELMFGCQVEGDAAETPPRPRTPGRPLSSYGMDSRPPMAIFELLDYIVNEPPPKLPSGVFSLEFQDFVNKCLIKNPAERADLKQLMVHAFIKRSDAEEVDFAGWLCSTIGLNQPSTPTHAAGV

PKC theta = target: T7, PKC theta (Homo sapiens, UniProt Q04759); assay: Z'-Lyte FRET kinase assay (Invitrogen), PKC theta; details: read-out: IC50, activity toward kinase PKC theta
T7 construct: purchased Invitrogen (Carlsbad, Calif.), screening service
Description: (§1) The effect of potential modulators of kinase activity can be measured in a variety of different assays known in the art. For example, direct radiometric, indirect FRET or AlphaScreen assays may be used to assess the level of phosphorylation of a substrate in the presence of test compounds in order to determine the inhibitory affect of the compound on the kinase. Invitrogen (Carlsbad, Calif.) uses a FRET based assay for Btk, EGFR, EphB2, Flt3, lrak4, Kdr, MAP2K1, MAPKAPK2, PDGFRB, PKC theta, Stk6 and Yes. For these assays, compounds of the invention were screened by Invitrogen using Z′-Lyte™ kinase assay.
(§2) Briefly, the Invitrogen kinase assay involves use of a specific peptide substrate optimized for each kinase, containing a fluorophore at each end that make up the FRET pair. The peptide sensitivity to proteolytic cleavage depends on phosphorylation of the peptide. Non-phosphorylated peptide is cleaved by a protease while peptide phosphorylated by the kinase is not cleaved. Cleavage of the peptide disrupts the FRET between the donor (coumarin) and acceptor (fluorescein) fluorophores, resulting in an increase in the ratio of donor emission to acceptor emission. The emission ratio of coumarin to fluorescein is used to assess the reaction progress. The extent of phosphorylation is determined from the emission ratio, which is low when the kinase is active (phosphorylated peptide is not cleaved, FRET pair connected) or higher for inhibited kinase (non-phosphorylated peptide is cleaved, FRET pair separated). Thus, the assay involves a kinase reaction in the presence of varying concentrations of a given compound, a development reaction with site specific protease, and detection of the fluorescent emission ratio of coumarin and fluorscein. […] Reaction conditions for each kinase are determined to provide optimal reaction times, incubation temperature, kinase and ATP concentrations. Test samples are made up in 1× kinase buffer (50 mM HEPES pH 7.5, 50 mM MgCl2, 5 mM EGTA, 0.05% BRIJ-35) and compound at desired concentration prepared in DMSO such that the final DMSO is 1%. […] Typically, assay plates are prepared to 10 μl final volume per sample, adding 2.5 μl of compound at 4× the desired concentration in 4% DMSO (serial dilution of compound provides concentration curve), 5 μl of the desired kinase mixed with Z′-LYTE™ peptide substrate (2× in 2× kinase buffer, final peptide at 2 μM), and 2.5 μl of 4×ATP solution. All kinase except for MAP2K1 were at 10 μM ATP in the kinase reaction, while MAP2K1 was at 100 μM. Samples are mixed and the kinase reaction is incubated 1 hour at room temperature, after which 5 μl of development solution is added and mixed. After incubation for another 1 hour at room temperature, 5 μl of stop reagent is added to each sample and mixed. The fluorescence signals are measured to determine the emission ratio.

Stk6 = target: T8, Stk6 (Homo sapiens, UniProt O14965); assay: Z'-Lyte FRET kinase assay (Invitrogen), Stk6; details: read-out: IC50, activity toward kinase Stk6
T8 construct: purchased Invitrogen (Carlsbad, Calif.), screening service
T8 sequence (O14965 1-403): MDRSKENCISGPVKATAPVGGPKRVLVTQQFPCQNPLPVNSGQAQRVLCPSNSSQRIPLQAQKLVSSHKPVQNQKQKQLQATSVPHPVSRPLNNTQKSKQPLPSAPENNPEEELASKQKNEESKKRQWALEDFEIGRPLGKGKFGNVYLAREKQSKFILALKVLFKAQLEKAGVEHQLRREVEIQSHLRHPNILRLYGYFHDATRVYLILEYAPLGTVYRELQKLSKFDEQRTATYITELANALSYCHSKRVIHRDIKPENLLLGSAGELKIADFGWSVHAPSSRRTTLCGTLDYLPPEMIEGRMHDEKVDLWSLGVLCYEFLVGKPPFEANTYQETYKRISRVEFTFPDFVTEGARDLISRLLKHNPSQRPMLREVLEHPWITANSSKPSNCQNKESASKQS

Yes = target: T9, Yes (Homo sapiens, UniProt P07947); assay: Z'-Lyte FRET kinase assay (Invitrogen), Yes; details: read-out: IC50, activity toward kinase Yes
T9 construct: purchased Invitrogen (Carlsbad, Calif.), screening service
How it was run: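 Each kinase phosphorylated a FRET peptide (2 μM) at 10 μM ATP in 50 mM HEPES pH 7.5, 50 mM MgCl2, 5 mM EGTA, 0.05% BRIJ-35 with 1% DMSO, 1 h at room temperature. After a 1 h protease development step, coumarin/fluorescein emission ratio was read across serial compound dilutions.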

IGF1R = IGF1R (Homo sapiens, UniProt P08069); assay: AlphaScreen kinase assay, IGF1R; details: read-out: IC50, activity toward kinase IGF1R
Chain of IGF1R (P08069 31-1367): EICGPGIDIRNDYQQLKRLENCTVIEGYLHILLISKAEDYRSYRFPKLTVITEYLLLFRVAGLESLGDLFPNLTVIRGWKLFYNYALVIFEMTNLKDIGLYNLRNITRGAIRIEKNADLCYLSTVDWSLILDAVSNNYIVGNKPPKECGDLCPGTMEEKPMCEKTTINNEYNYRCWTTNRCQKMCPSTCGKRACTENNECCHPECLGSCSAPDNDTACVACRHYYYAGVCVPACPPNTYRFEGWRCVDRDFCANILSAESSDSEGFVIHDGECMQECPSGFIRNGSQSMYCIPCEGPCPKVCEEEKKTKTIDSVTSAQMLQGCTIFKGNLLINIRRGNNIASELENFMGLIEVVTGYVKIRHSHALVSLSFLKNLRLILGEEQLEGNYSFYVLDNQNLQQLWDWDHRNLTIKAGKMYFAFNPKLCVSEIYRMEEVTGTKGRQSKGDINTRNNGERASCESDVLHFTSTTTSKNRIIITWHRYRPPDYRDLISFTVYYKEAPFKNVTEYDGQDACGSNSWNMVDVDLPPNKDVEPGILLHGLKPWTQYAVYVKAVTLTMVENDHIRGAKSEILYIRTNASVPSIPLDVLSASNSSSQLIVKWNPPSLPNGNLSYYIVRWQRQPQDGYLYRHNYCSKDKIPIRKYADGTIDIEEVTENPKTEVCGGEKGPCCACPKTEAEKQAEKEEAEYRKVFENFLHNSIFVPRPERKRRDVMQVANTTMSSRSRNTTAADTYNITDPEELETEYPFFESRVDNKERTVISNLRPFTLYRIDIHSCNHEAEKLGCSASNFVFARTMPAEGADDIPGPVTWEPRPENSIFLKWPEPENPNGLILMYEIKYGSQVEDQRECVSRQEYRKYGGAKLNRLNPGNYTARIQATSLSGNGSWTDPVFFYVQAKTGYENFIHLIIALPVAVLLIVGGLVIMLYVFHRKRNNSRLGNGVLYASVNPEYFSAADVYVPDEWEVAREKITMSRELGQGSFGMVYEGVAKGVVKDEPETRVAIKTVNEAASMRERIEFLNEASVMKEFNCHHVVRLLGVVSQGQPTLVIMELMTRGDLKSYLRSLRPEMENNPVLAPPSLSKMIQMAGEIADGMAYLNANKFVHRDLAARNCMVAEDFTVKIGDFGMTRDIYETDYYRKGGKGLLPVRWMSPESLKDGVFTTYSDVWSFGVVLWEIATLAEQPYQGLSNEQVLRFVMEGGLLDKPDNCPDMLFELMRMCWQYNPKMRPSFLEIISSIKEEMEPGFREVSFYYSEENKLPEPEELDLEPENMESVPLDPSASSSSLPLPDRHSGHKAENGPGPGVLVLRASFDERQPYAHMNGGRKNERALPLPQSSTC
Description: AlphaScreen assays were done using compounds dissolved in DMSO to a concentration of 20 mM. The compounds were diluted accordingly to the desired final concentrations in each sample well, using 1:3 serial dilution for a total of 8 concentration points. Plates were prepared such that each kinase reaction is 20 μl in 1× kinase buffer, 5% DMSO and 10 μM ATP. After incubation of the kinase reaction for 1 hour at room temperature, 5 μl of donor beads in stop buffer (50 mM EDTA in 1× kinase buffer) was added, the sample was mixed and incubated for 20 minutes at room temperature before adding 5 μl of acceptor beads in stop buffer. The samples were incubated for 60 minutes at room temperature and the signal per well was read on AlphaQuest reader.

Itk = target: T10, Itk (Homo sapiens, UniProt Q08881); assay: AlphaScreen kinase assay, Itk; details: read-out: IC50, activity toward kinase Itk
T10 sequence (Q08881 1-620): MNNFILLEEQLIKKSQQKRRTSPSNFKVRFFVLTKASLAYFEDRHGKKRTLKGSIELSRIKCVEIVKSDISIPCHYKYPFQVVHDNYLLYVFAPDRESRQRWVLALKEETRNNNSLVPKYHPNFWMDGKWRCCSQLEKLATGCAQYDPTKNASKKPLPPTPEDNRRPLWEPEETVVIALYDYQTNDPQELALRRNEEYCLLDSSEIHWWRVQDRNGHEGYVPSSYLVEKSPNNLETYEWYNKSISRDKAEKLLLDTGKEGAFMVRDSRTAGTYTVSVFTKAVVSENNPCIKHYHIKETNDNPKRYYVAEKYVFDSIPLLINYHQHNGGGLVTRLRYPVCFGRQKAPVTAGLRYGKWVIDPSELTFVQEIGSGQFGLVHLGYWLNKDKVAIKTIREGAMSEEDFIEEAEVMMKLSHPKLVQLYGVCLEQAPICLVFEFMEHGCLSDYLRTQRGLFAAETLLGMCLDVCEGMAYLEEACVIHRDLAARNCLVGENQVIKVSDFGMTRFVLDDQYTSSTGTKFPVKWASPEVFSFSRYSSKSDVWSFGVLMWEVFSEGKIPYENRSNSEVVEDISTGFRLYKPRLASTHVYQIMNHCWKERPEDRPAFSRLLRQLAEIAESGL
How it was run: (§3)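 Biotinylated peptide substrate phosphorylation detected by AlphaScreen with phospho-specific antibody acceptor beads and streptavidin donor beads. Compounds tested as 8-point 1:3 serial dilutions from 20 mM DMSO stocks.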

Plk1 = Plk1 (Homo sapiens, UniProt P53350); assay: AlphaScreen kinase assay, Plk1; details: read-out: IC50, activity toward kinase Plk1
Chain of Plk1 (P53350 whole entry): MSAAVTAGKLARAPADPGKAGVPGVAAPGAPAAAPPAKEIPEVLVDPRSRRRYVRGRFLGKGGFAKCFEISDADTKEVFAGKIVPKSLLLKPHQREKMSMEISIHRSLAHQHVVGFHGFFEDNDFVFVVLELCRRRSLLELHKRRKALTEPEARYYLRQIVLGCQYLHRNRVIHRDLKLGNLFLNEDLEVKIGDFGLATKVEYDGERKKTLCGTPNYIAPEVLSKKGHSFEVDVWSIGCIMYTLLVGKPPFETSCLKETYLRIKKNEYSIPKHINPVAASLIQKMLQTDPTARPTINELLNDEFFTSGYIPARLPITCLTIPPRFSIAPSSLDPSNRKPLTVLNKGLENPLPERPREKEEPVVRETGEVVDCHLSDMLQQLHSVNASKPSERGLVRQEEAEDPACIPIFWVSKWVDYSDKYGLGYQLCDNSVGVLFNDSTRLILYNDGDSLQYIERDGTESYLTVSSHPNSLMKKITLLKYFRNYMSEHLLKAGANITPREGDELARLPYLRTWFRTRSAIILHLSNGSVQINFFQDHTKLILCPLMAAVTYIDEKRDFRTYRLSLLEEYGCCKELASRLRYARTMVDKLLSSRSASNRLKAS
How it was run: as §3

Irak4 = target: T11, Irak4 (Homo sapiens, UniProt Q9NWZ3); assay: Z'-Lyte FRET kinase assay (Invitrogen), Irak4; details: read-out: IC50, activity toward kinase Irak4
T11 construct: purchased Invitrogen (assay run by Invitrogen)
T11 sequence (Q9NWZ3 1-460): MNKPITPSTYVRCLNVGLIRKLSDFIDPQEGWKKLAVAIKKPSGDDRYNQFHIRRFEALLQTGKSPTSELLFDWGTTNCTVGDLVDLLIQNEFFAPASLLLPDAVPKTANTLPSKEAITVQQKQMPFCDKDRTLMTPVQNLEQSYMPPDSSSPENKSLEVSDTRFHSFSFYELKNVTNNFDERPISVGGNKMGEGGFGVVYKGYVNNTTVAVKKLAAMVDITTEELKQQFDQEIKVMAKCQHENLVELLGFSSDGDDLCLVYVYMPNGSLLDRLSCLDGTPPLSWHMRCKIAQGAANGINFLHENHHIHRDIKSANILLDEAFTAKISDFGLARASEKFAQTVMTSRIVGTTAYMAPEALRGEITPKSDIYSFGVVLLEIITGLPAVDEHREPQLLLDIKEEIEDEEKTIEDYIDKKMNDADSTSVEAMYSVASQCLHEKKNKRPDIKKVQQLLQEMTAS
Description: as §1, §2

Met = target: T12, Met (Homo sapiens, UniProt P08581); assay: AlphaScreen kinase assay, Met; details: read-out: IC50, activity toward kinase Met
T12 construct: P1818.pETN6 BI-PTP MET G1056-G1364-X WT; His6 (N); made in house; host or cells: E. coli (PTP1B co-expressed)
T12 sequence (P08581 with tags, fused parts or gaps): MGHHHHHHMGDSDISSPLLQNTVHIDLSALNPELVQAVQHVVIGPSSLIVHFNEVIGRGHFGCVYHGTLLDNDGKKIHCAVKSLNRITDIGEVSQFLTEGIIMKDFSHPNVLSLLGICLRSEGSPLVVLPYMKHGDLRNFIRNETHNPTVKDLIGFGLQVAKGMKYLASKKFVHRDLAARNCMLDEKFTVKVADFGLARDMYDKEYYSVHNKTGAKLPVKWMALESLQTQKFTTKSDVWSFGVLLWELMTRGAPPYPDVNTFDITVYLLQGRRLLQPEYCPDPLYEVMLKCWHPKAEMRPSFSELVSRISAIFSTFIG
How it was run: as §3

Flt1 = target: T13, Flt1 (Homo sapiens, UniProt P17948); assay: AlphaScreen kinase assay, Flt1; details: read-out: IC50, activity toward kinase Flt1
T13 construct: P1826.pETN6 BI-PTP FLT1 M799-D1165-X WT; His6 (N); made in house; host or cells: E. coli (PTP1B co-expressed)
T13 sequence (P17948 with tags, fused parts or gaps): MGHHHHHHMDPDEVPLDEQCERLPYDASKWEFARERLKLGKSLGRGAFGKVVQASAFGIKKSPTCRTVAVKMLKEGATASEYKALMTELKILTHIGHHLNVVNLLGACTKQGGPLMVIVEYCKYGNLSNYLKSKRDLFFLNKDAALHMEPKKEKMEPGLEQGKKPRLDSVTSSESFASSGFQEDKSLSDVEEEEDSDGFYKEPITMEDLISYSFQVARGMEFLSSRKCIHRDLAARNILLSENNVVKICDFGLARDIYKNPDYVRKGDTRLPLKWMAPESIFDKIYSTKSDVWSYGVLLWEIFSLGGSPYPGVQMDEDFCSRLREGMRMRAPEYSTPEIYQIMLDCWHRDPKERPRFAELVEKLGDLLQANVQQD

MAP4K4 = MAP4K4 (Homo sapiens, UniProt O95819); assay: AlphaScreen kinase assay, MAP4K4; details: read-out: IC50, activity toward kinase MAP4K4
Akt3 = Akt3 (Homo sapiens, UniProt Q9Y243); assay: AlphaScreen kinase assay, Akt3; details: read-out: IC50, activity toward kinase Akt3
How it was run: as §3

Gsk3β = Gsk3β (Homo sapiens, UniProt P49841); assay: AlphaScreen kinase assay, Gsk3β; details: read-out: IC50, activity toward kinase Gsk3β
How it was run: as §3

Measured: IC50

T2 sequence (P28482 with tags, fused parts or gaps): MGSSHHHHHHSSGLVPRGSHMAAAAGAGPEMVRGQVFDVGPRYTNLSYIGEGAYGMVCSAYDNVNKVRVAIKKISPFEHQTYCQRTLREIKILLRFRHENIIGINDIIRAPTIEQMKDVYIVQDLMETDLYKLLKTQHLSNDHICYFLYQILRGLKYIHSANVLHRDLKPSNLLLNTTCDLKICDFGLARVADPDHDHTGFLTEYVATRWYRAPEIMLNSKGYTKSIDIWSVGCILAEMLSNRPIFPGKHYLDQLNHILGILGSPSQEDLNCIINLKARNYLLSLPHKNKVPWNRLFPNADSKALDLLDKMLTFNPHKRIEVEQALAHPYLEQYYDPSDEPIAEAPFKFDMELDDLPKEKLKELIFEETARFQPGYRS

Cc1cc(C)cc(-c2ccnc3[nH]cc(C=O)c23)c1 [Compound P-0031]
not listed: Irak4 | Met | Flt1 | MAP4K4 | Akt3 | Gsk3β
≤ 10 µM: all other assays above

CC(=O)Nc1cccc(-c2c[nH]c3ncccc23)c1 [Compound P-0076]
≤ 10 µM: Irak4 | Kdr | MAP2K1 | Met | Stk6

Nc1cccc(-c2c[nH]c3ncccc23)c1 [Compound P-0091]
≤ 10 µM: Flt1 | Irak4 | Kdr | Stk6

c1cnc2[nH]cc(-c3ccncc3)c2c1 [Compound P-0130]
≤ 10 µM: Irak4 | Kdr | MAP4K4

Cc1cccc(-c2ccnc3[nH]cc(CNS(=O)(=O)C(F)(F)F)c23)c1 [Compound P-0154]
≤ 10 µM: Erk2 | Flt1 | Kit | Stk6 | Akt3 | Gsk3β | IGF1R | Plk1

From US8415469B2, “Compounds and methods for kinase modulation, and indications therefor” (Plexxikon Inc., priority 2005, dated 2013)
